Where no end group is shown, it is not given here.

For assay [1], the system named is scopolamine-induced amnesia. The experiment in a line: Y-shaped maze test (spontaneous alternation behavior) after scopolamine-induced brain dysfunction. The conditions noted are these: scopolamine 1 mg/kg s.c. The assay is classed as in vivo, Male ddY mice. As to the method:
Male ddY mice (about 7 weeks old) were used (n=15 to 75), and provided with food and water ad libitum. Asn-Ile-Pro-Pro-Leu-Thr-Gln-Thr-Pro-Val-Val-Val-Pro-Pro-Phe-Leu-Gln-Pro-Glu (SEQ ID NO: 1) was used as a test substance in amounts of 0.05 nmol/kg body weight (0.1 μg/kg body weight), 0.5 nmol/kg body weight (1 μg/kg body weight), 1.5 nmol/kg body weight (3 μg/kg body weight), 5 nmol/kg body weight (10 μg/kg body weight), 50 nmol/kg body weight (100 μg/kg body weight), and 500 nmol/kg body weight (1,000 μg/kg body weight). The test substance was administered as a single dose orally to mice 60 minutes before performing a Y-shaped maze test for evaluating spontaneous alternation behavior. Thirty minutes before performing the Y-shaped maze test, scopolamine was subcutaneously administered in an amount of 1 mg/kg body weight into the back to induce brain dysfunction (memory disorder and/or cognition disorder) in mice. In the Y-shaped maze test, as an experiment device, a Y-shaped maze was used in which the length for each arm was 40 cm; the wall height was 12 cm; the floor width was 3 cm; the upper part width was 10 cm; and three arms were connected to each other at an angle of 120°. Each mouse was placed in the end of any of the alms of the Y-shaped maze and allowed to explore freely in the maze over 8 minutes, and the sequence of the arms to which the mouse moved was recorded. The number of movements of the mouse to the arms within the measurement time was counted and used as the total number of entries; in the sequence, the combination in which three different arms were selected in succession (for example, with the three arms respectively called A, B, and C, if the sequence of the arms entered is ABCBACACB, the count is 4 inclusive of overlapping) was investigated, and the count number was used as the number of spontaneous alternation behaviors. The change in spontaneous alternation behavior (%) was calculated by dividing the number of spontaneous alternation behaviors by a number obtained by subtracting 2 from the total number of entries, and multiplying the resultant number by 100, and the percentage was used as an indicator of the spontaneous alternation behavior. […] The measured values were expressed as mean±standard error for each group. The significance of difference between the control group and the scopolamine control group was tested by Student's t-test. […]
Male ddY mice (about 7 weeks old) were used (n=15 to 45), and provided with food and water ad libitum. […] Each mouse was placed in the end of any of the arms of the Y-shaped maze and allowed to explore freely in the maze over 8 minutes, and the sequence of the arms to which the mouse moved was recorded. […]

In assay [2] the test system is memory retention. Put plainly: novel object recognition test for evaluating memory retention. It counts as in vivo, Male ddY mice. Conditions: Example 6, FIG. 7; single oral dose 500 nmol/kg body weight (1,000 μg/kg) 60 min before training trial; retention trial 48 hours later. As to the method:
Male ddY mice (about 7 weeks old) were used (n=14 to 15), and provided with food and water ad libitum. As a test substance, 500 nmol/kg body weight (1,000 μg/kg body weight) of Asn-Ile-Pro-Pro-Leu-Thr-Gln-Thr-Pro-Val-Val-Val-Pro-Pro-Phe-Leu-Gln-Pro-Glu (SEQ ID NO: 1) was used. The test substance was administered as a single dose orally to mice 60 minutes before performing a novel object recognition test for evaluating memory retention. In the novel object recognition test, a 30×30×30 cm box was used as an experiment device. As a conditioning operation, a mouse was placed in an experiment device in which a floorcloth was laid for 5 minutes, and allowed to explore freely in the device. A training trial was performed the day following the conditioning operation. […] Sixty minutes after orally administering the test substance or water, a mouse was placed in the experiment device for 5 minutes, and the time (second) was measured during which the mouse explored by approaching each object to be within 1 cm therefrom. […] (However, the state in which a mouse rides on an object is excluded.) The percentages of the times were determined during which two objects were explored in each of the training trial and the retention trial. The percentage (%) of the exploration time for each object was expressed as mean±standard error for each of the groups. […]

The mark [3] stands for this setting: Example 5, FIG. 6, single oral dose 50 nmol/kg body weight 60 min before test.

Take NIPPLTQTPVVVPPFLQPE [SEQ ID NO: 1]: the “amnesia-preventing action (change in spontaneous alternation behavior)” value was “amnesia-preventing action” in assay [1] (Example 4, FIG. 5, single oral dose 60 min before test, range 0.05 nmol/kg body weight to 500 nmol/kg body weight (0.1 to 1,000 μg/kg)) and “amnesia-preventing action” in assay [1] (setting [3]). Further, the “memory-enhancing action (percentage of exploration time for novel object)” value in assay [2] is listed as “memory-enhancing action”.

Regarding NIPPLTQTPVVVPPFLQPEVM [SEQ ID NO: 2], the “amnesia-preventing action (change in spontaneous alternation behavior)” value in assay [1] (setting [3]) is listed as “amnesia-preventing action”.

In the case of SWMHQPHQPLPPTVMFPPQSVL [SEQ ID NO: 3], in assay [1] (Example 7, FIG. 8, single oral dose 150 nmol/kg body weight to 500 nmol/kg body weight (380 to 1,280 μg/kg)), the “amnesia-preventing action (change in spontaneous alternation behavior)” value was “amnesia-preventing action”.

These data come from patent US9523109B2, “Method for enzymatically preparing peptides for use in improvement of brain function” (CALPIS CO., LTD., priority 2011, dated 2016).
